Experimental data reported in ChEMBL document CHEMBL6134812, “A thiocoumarin based self-reporting sulfide prodrug strategy with a favorable safety profile” (Eur J Med Chem, 2025).
Activity calls are given as the source filed them. The calls are words filed in the database; no cut-off is given here.

How the values were obtained:
Mus musculus [1] = test: Protection against cerebral infarction in C57BL/6JNifdc mouse tMCAO model assessed as decrease in infarction area in brain at 100 umol/kg, iv measured after 24 hrs by TTC staining based analysis; format: functional, organism-based; conditions: dose 100.0 µmol/kg
Mus musculus [2] = test: Anticoagulant activity in C57BL/6J mouse assessed as tail bleeding time at 40 mg/kg, ip and measured for 40 mins; format: functional
Liver carboxylesterase [3] = biological target: T1, Liver carboxylesterase (Sus scrofa, UniProt Q29550); test: Prodrug release assessed as pig liver esterase-mediated H2S and fluorescent coumarin release by measuring half life of drug at 500 uM by HPLC analysis; format: ADME
T1 sequence (Q29550 whole entry): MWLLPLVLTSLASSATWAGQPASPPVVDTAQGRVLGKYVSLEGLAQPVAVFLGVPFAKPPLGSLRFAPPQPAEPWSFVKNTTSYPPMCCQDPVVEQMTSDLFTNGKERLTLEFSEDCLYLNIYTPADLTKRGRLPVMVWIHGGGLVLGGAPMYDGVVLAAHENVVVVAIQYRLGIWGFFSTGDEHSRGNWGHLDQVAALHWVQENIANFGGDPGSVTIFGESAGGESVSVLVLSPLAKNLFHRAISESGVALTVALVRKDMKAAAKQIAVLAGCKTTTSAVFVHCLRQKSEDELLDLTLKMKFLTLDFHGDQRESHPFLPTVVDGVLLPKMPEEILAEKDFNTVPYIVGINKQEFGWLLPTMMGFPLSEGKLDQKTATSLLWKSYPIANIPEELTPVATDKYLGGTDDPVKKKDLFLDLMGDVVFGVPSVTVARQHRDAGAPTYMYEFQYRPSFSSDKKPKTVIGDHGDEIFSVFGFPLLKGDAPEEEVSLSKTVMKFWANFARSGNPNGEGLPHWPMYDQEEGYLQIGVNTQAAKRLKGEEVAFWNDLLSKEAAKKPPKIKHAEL

[4] = Prodrug release in Sprague-Dawley rat plasma assessed as fluorescence intensity at 500 uM by fluorescence based analysis; format: ADME, cell-free
[5] = Drug uptake in C57BL/6J mouse kidney assessed as increase in fluorescence intensity at 100 umol/kg, iv measured after 10 mins by Ex vivo fluorescent imaging analysis; format: ADME, organism-based; conditions: dose 100 µmol/kg
[6] = Drug uptake in C57BL/6J mouse brain assessed as increase in fluorescence intensity at 100 umol/kg, iv measured after 10 mins by Ex vivo fluorescent imaging analysis; format: ADME, organism-based; conditions: dose 100 µmol/kg
[7] = Drug uptake in C57BL/6J mouse liver assessed as increase in fluorescence intensity at 100 umol/kg, iv measured after 10 mins by Ex vivo fluorescent imaging analysis; format: ADME, organism-based; conditions: dose 100 µmol/kg
[8] = Prodrug release in Sprague-Dawley rat plasma assessed as increase in fluorescence intensity by measuring half life at 500 uM by fluorescence based analysis; format: ADME, cell-free
Mus musculus [9] = test: Protection against cerebral infarction in C57BL/6JNifdc mouse tMCAO model assessed as decrease in MDA level in serum at 100 umol/kg, iv measured per mg protein after 24 hrs; format: functional; conditions: dose 100 µmol/kg
Mus musculus [10] = test: Protection against cerebral infarction in C57BL/6JNifdc mouse tMCAO model assessed as decrease in LDH level in brain at 100 umol/kg, iv measured after 24 hrs; format: functional, organism-based; conditions: dose 100.0 µmol/kg
[11] = Acute liver toxicity in C57BL/6J mouse assessed as ALT level in serum at 869 mg/kg, ip measured after 24 hrs; format: organism-based; conditions: in vivo
[12] = Acute liver toxicity in C57BL/6J mouse assessed as AST level in serum at 869 mg/kg, ip measured after 24 hrs; format: organism-based; conditions: in vivo
[13] = Acute liver toxicity in C57BL/6J mouse assessed as ALP level in serum at 869 mg/kg, ip measured after 24 hrs; format: organism-based; conditions: in vivo
[14] = Acute liver toxicity in C57BL/6J mouse assessed as gamma-GT level in liver at 869 mg/kg, ip measured after 24 hrs; format: organism-based; conditions: in vivo
Mus musculus [15] = test: Acute renal toxicity in C57BL/6J mouse assessed as albumin level in serum at 869 mg/kg, ip measured after 24 hrs; format: organism-based; conditions: in vivo
Mus musculus [16] = test: Acute renal toxicity in C57BL/6J mouse assessed as GSH level in kidney at 869 mg/kg, ip measured after 24 hrs; format: organism-based; conditions: in vivo
[17] = Acute toxicity in C57BL/6J mouse assessed as total protein level at 869 mg/kg, ip measured after 24 hrs; format: organism-based; conditions: in vivo
[18] = Acute toxicity in C57BL/6J mouse assessed as total bilirubin level in serum at 869 mg/kg, ip measured after 24 hrs; format: organism-based; conditions: in vivo
[19] = Acute toxicity in C57BL/6J mouse assessed as creatinine level in serum at 869 mg/kg, ip measured after 24 hrs; format: organism-based; conditions: in vivo
[20] = Acute toxicity in C57BL/6J mouse assessed as uric acid level in serum at 869 mg/kg, ip measured after 24 hrs; format: organism-based; conditions: in vivo
[21] = Acute toxicity in C57BL/6J mouse assessed as SOD level at 869 mg/kg, ip measured after 24 hrs; format: organism-based; conditions: in vivo
[22] = Acute toxicity in C57BL/6J mouse assessed as morphological changes in liver at 869 mg/kg, ip measured after 24 hrs by Hematoxylin-Eosin staining based analysis; format: organism-based; conditions: in vivo
[23] = Acute toxicity in C57BL/6J mouse assessed as morphological changes in kidney at 869 mg/kg, ip measured after 24 hrs by Hematoxylin-Eosin staining based analysis; format: organism-based; conditions: in vivo
[24] = Acute toxicity in C57BL/6J mouse assessed as visible bleeding in cerebral area at 869 mg/kg, ip measured after 24 hrs; format: organism-based; conditions: in vivo
Mus musculus [25] = test: Anticoagulant activity in C57BL/6J mouse assessed as prothrombin time at 40 mg/kg, ip; format: functional, organism-based
Mus musculus [26] = test: Anticoagulant activity in C57BL/6J mouse assessed as activated partial thromboplastin time at 40 mg/kg, ip; format: functional, organism-based
Liver carboxylesterase [27] = biological target: T1, Liver carboxylesterase; test: Prodrug release assessed as pig liver esterase-mediated H2S and fluorescent coumarin release by measuring half life of drug at 500 uM by fluorescence based analysis; format: ADME
Liver carboxylesterase [28] = biological target: T1, Liver carboxylesterase; test: Prodrug release assessed as pig liver esterase-mediated H2S and fluorescent coumarin release at 500 uM incubated for 24 hrs in presence of esterase inhibitor by HPLC analysis; format: ADME; conditions: isolated protein
Liver carboxylesterase [29] = biological target: T1, Liver carboxylesterase; test: Prodrug release assessed as pig liver esterase-mediated H2S and coumarin release by measuring H2S concentration at 500 uM measured after 12 hrs by methylene blue method; format: ADME; conditions: isolated protein
[30] = Prodrug release in Sprague-Dawley rat plasma assessed as fluorescence intensity at 500 uM measured after 24 hrs in presence of esterase inhibitor by fluorescence based analysis; format: ADME, cell-free
[31] = Prodrug release in C57BL/6J mouse kidney assessed as H2S generation by measuring increase in fluorescence intensity at 100 umol/kg, iv measured after 6 hrs by Ex vivo fluorescent imaging analysis; format: ADME, organism-based; conditions: dose 100 µmol/kg
[32] = Prodrug release in C57BL/6J mouse brain assessed as H2S generation by measuring increase in fluorescence intensity at 100 umol/kg, iv measured after 6 hrs by Ex vivo fluorescent imaging analysis; format: ADME, organism-based; conditions: dose 100 µmol/kg
[33] = Prodrug release in C57BL/6J mouse liver assessed as H2S generation by measuring increase in fluorescence intensity at 100 umol/kg, iv measured after 6 hrs by Ex vivo fluorescent imaging analysis; format: ADME, organism-based; conditions: dose 100 µmol/kg
[34] = Prodrug release in C57BL/6J mouse kidney assessed as increase in fluorescence intensity at 100 umol/kg, iv measured after 6 hrs by fluorescence based analysis; format: ADME, organism-based; conditions: in vivo, dose 100 µmol/kg
[35] = Prodrug release in C57BL/6J mouse brain assessed as increase in fluorescence intensity at 100 umol/kg, iv measured after 6 hrs by fluorescence based analysis; format: ADME, organism-based; conditions: in vivo, dose 100 µmol/kg
[36] = Prodrug release in C57BL/6J mouse liver assessed as increase in fluorescence intensity at 100 umol/kg, iv measured after 6 hrs by fluorescence based analysis; format: ADME, organism-based; conditions: in vivo, dose 100 µmol/kg

CCN(CC)c1ccc2c(C)cc(=O)oc2c1
Activity (Mus musculus [1]): Active; Slight Decrease Compared To Thio-Coumarins (Sulfide Prodrugs) | Time (Mus musculus [2]): 9.58 min

S=c1ccc2ccc3occc3c2o1
t1/2 (Liver carboxylesterase [3]): 66.71 h | Drug metabolism [4]: metabolite_notdetected

Cc1cc(=O)oc2cc(O)ccc12 [HYMECROMONE]
Drug uptake [5]: Active | Drug uptake [6]: Active | Drug uptake [7]: Active | Activity (Mus musculus [1]): Active; Slight Decrease Compared To Thio-Coumarins (Sulfide Prodrugs) | Time (Mus musculus [2]): 13.99 min

COc1ccc2cc3c(C)cc(=S)oc3cc2c1
t1/2 (Liver carboxylesterase [3]): > 120 h | t1/2 [8]: 9.06 h

S=c1ccc2cc3ccoc3cc2o1
t1/2 (Liver carboxylesterase [3]): 62.89 h | t1/2 [8]: 3.95 h | Activity (Mus musculus [1]): Active | Activity (Mus musculus [9]): 14.14 nmol | Activity (Mus musculus [10]): Active | Activity [11]: Non-toxic | Activity [12]: Non-toxic | Activity [13]: Non-toxic | Activity [14]: Non-toxic | Activity (Mus musculus [15]): Non-toxic | Activity (Mus musculus [16]): Non-toxic | Activity [17]: Non-toxic | Activity [18]: Non-toxic | Activity [19]: Non-toxic | Activity [20]: Non-toxic | Activity [21]: Non-toxic | Activity [22]: Non-toxic | Activity [23]: Non-toxic | Activity [24]: Non-toxic | Time (Mus musculus [2]): 16.52 min | Activity (Mus musculus [25]): Active; Retained The Anticoagulant Activity Of Coumarins Observed | Activity (Mus musculus [26]): Active; Retained The Anticoagulant Activity Of Coumarins Observed

O=c1ccc2cc3ccoc3cc2o1 [PSORALEN]
Activity (Mus musculus [1]): Active; Slight Decrease Compared To Thio-Coumarins (Sulfide Prodrugs) | Time (Mus musculus [2]): 22.24 min

Cc1cc(=S)oc2cc(O)ccc12
t1/2 (Liver carboxylesterase [27]): 50.4 h | t1/2 (Liver carboxylesterase [3]): 57.59 h | Drug metabolism (Liver carboxylesterase [28]): metabolite_notdetected | Drug metabolism (Liver carboxylesterase [29]): 31.46 µM | t1/2 [8]: 2.52 h | Drug metabolism [30]: metabolite_notdetected | Drug metabolism [31]: metabolite_detected | Drug metabolism [32]: metabolite_detected | Drug metabolism [33]: metabolite_detected | Drug metabolism [34]: metabolite_detected | Drug metabolism [35]: metabolite_detected | Drug metabolism [36]: metabolite_detected | Activity (Mus musculus [1]): Active | Activity (Mus musculus [9]): 7.59 nmol | Activity (Mus musculus [10]): Active | Time (Mus musculus [2]): 10.84 min | Activity (Mus musculus [25]): Active; Retained The Anticoagulant Activity Of Coumarins Observed | Activity (Mus musculus [26]): Active; Retained The Anticoagulant Activity Of Coumarins Observed

Cc1cc(=S)oc2cc3cc(O)ccc3cc12
t1/2 (Liver carboxylesterase [3]): > 120 h | t1/2 [8]: 52.4 h

S=c1ccc2ccccc2o1
t1/2 (Liver carboxylesterase [3]): 94.44 h | Drug metabolism [4]: metabolite_notdetected

Cc1cc(=S)oc2cc(N(C)C)ccc12
t1/2 (Liver carboxylesterase [3]): > 120 h | t1/2 [8]: 36.22 h

Nc1ccc2c(C(F)(F)F)cc(=S)oc2c1
t1/2 (Liver carboxylesterase [3]): > 120 h | t1/2 [8]: 9.43 h

CCN(CC)c1ccc2c(C)cc(=S)oc2c1
t1/2 (Liver carboxylesterase [3]): > 120 h | Activity (Mus musculus [1]): Active | Activity (Mus musculus [9]): 7.4 nmol | Activity (Mus musculus [10]): Active | Time (Mus musculus [2]): 16.6 min | Activity (Mus musculus [25]): Active; Retained The Anticoagulant Activity Of Coumarins Observed | Activity (Mus musculus [26]): Active; Retained The Anticoagulant Activity Of Coumarins Observed

CCN(CC)c1ccc2c(CN(C)O)cc(=S)oc2c1
t1/2 (Liver carboxylesterase [3]): > 120 h | t1/2 [8]: 5.78 h
